# Assays:
# Jurkat cells = test: IL-2 secretion assay in CD3/CD28-activated Jurkat cells (AlphaLISA); type: cell-based; settings: Homo sapiens, CD3/CD28 T Cell Activator, 24 h, IL-2 AlphaLISA
# Procedure: Certain compounds were also evaluated in an IL-2 secretion assay. On the day of the assay, a 16 point, 1:2 master serial dilution of each compound was prepared in Opti-MEM to span a final concentration range of 10 μM to 300 pM. Assays were set up in CORNING® tissue culture-treated 384-well microplates containing 60 nL of each dilution. […] 50,000 cells/well and added to the compound plates. After a short spin (1200 rpm for 1 min), the plates were incubated at 37° C. for 1 hour. The cells were activated by adding 15 μL of IMMUNOCULT™ Human CD3/CD28 T Cell Activator ([…] Technologies) diluted in Opti-MEM. […] The AiphaLISA signal was measured using an EnVision plate reader (PerkinElmer). EC50 values were determined by fitting the data to a standard 4-parameter logistic equation.
# Cbl-b = molecular target: T1, Cbl-b (Homo sapiens, UniProt Q13191); test: Cbl-b probe displacement HTRF binding assay; settings: 0.4 nM biotinylated Cbl-b, 150 nM BODIPY probe
# T1 construct: biotin (biotinylated)
# Procedure: The affinity with which compounds of the present dislcosure bind to Cbl-b was assessed using probe displacement homologous time resolved fluorescence (HTRF) assays. […] The assays were performed in assay buffer consisting of 20 mM Hepes, 150 mM NaCl, 0.01% Triton X-100, 0.5 mM TCEP, 0.01% BSA. On the day of the assay, a 20 point, 1:2 master serial dilution of each compound was prepared in DMSO to span a final concentration range of […] to 0 nM. Two hundred nanoliters of diluted compound was added to each well of a 384-well plate. Fifteen microliters of biotinylated-Cbl-b resuspended in assay buffer were added to each well and the plate incubated for 60 minutes at room temperature prior to addition of 5 μL of BODIPY™ probe in assay buffer. […] After a further 15 minutes of incubation at room temperature, 5 μl of Streptavidin-Terbium cryptate reagent at 5-fold final concentration was added to each well of the 384-well plate. Binding of a probe to Cbl-b results in an increase of HTRF signal. […] Percentage maximum activity in each test well was calculated based on DMSO (maximum activity, 0% displacement) and no protein control wells (baseline activity, 100% displacement). Binding affinity was determined from a dose response curve fitted using a standard four parameter fit equation.
# T1 sequence (Q13191 whole entry, species assumed): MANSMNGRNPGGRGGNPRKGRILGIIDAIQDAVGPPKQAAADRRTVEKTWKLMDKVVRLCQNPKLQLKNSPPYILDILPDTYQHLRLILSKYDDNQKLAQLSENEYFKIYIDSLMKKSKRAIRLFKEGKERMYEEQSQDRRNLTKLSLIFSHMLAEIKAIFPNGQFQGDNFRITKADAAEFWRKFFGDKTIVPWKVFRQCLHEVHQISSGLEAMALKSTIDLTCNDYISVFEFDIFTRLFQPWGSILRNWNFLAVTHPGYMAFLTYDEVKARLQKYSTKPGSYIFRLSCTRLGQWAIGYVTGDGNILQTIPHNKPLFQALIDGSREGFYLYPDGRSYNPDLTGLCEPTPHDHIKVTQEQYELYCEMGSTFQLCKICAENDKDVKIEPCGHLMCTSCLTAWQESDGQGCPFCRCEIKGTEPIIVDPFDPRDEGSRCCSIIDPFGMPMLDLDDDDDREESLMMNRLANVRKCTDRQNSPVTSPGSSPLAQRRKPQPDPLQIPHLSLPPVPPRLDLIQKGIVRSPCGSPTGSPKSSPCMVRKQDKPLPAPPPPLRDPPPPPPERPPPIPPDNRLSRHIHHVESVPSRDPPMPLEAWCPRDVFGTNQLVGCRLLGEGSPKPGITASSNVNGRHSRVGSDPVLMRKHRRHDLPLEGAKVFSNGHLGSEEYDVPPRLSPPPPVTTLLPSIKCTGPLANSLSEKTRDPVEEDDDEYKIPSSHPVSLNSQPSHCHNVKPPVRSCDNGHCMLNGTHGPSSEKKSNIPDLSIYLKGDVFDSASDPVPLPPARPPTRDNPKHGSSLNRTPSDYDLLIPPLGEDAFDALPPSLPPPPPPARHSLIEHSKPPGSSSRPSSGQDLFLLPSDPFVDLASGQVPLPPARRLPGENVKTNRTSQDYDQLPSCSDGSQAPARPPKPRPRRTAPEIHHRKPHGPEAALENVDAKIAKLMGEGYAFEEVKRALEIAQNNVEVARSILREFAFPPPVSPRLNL
Compound,EC50 (Jurkat cells) [µM],IC50 (Cbl-b) [µM]
"C[C@H]1CCCN(Cc2cc3c(C4CC4)cn(-c4cccc(C5(c6nccn6C)CC(F)(F)C5)c4)c(=O)c3[nH]2)C1 [Example 128, 4-cyclopropyl-6-[3-[3,3-difluoro-1-(1-methylimidazol-2-yl)cyclobutyl]phenyl]-2-[[(3S)-3-methylpiperidin-1-yl]methyl]-1H-pyrrolo[2,3-c]pyridin-7-one]",0.1 to 1,< 0.1
"Cn1cnnc1C1(c2cccc(-n3cc(C4CC4)c4cc(CN[C@@H]5CCCS(=O)(=O)C5)[nH]c4c3=O)c2)CC(F)(F)C1 [Example 87, (3R)-3-{[(4-cyclopropyl-6-{3-[3,3-difluoro-1-(4-methyl-4H-1,2,4-triazol-3-yl)cyclobutyl]phenyl}-7-oxo-1H,6H,7H-pyrrolo[2,3-c]pyridin-2-yl)methyl]amino}-1λ^6-thiane-1,1-dione]",> 5,0.1 to 1
"Cn1cnnc1[C@]1(c2cccc(-n3cc(S(C)(=O)=O)c4cc[nH]c4c3=O)c2)C[C@H](C)C1 (single isomer, unassigned) [Example 108, 6-[3-[3-methyl-1-(4-methyl-1,2,4-triazol-3-yl)cyclobutyl]phenyl]-4-methylsulfonyl-1H-pyrrolo[2,3-c]pyridin-7-one]",> 5,0.1 to 1
"C[C@H]1CCCN(Cc2cc3c(C4CC4)cn(-c4cccc(C5(c6nncn6C6CC6)CC6(CC6)C5)c4)c(=O)c3[nH]2)C1 [Example 144, 4-cyclopropyl-6-[3-[5-(4-cyclopropyl-1,2,4-triazol-3-yl)spiro[2.3]hexan-5-yl]phenyl]-2-[[(3S)-3-methylpiperidin-1-yl]methyl]-1H-pyrrolo[2,3-c]pyridin-7-one]",0.1 to 1,< 0.1
COC(c1cccc(-n2cc(C3CC3)c3cc(CN4CCC[C@H](C)C4)[nH]c3c2=O)c1)c1nncn1C (some centres unmarked) [Example 158],0.1 to 1,< 0.1
"CC1CC(c2cccc(-n3cc(C4CC4)c4cc(CN5CC6CCC5C6)[nH]c4c3=O)c2)(c2nncn2C)C1 (centres unmarked) [Example 52, 2-({2-azabicyclo[2.2.1]heptan-2-yl}methyl)-4-cyclopropyl-6-{3-[3-methyl-1-(4-methyl-4H-1,2,4-triazol-3-yl)cyclobutyl]phenyl}-1H,6H,7H-pyrrolo[2,3-c]pyridin-7-one]",< 0.1,< 0.1
CC1CC(c2cccc(-n3cc(C4CC4)c4cc(CN5C[C@@H]6C[C@H]5CN6C)[nH]c4c3=O)c2)(c2nncn2C)C1 (some centres unmarked) [Example 62],> 5,0.1 to 1
"CC1CC(c2cccc(-n3cc(C4CC4)c4cc(CN5CCCC[C@@H]5C)[nH]c4c3=O)c2)(c2nncn2C)C1 (some centres unmarked) [Example 43, 4-cyclopropyl-6-{3-[3-methyl-1-(4-methyl-4H-1,2,4-triazol-3-yl)cyclobutyl]phenyl}-2-{[(2S′)-2-methylpiperidin-1-yl]methyl}-1H,6H,7H-pyrrolo[2,3-c]pyridin-7-one]",< 0.1,< 0.1
"CC1CC(c2cccc(-n3cc(C4CC4)c4cc(CN5CCC(F)(F)[C@H](C)C5)[nH]c4c3=O)c2)(c2nncn2C)C1 (stereo partly drawn) [Example 57, 4-cyclopropyl-2-{[(3R)-4,4-difluoro-3-methylpiperidin-1-yl]methyl}-6-{3-[3-methyl-1-(4-methyl-4H-1,2,4-triazol-3-yl)cyclobutyl]phenyl}-1H,6H,7H-pyrrolo[2,3-c]pyridin-7-one]",0.1 to 1,< 0.1
"C[C@H]1CCCN(Cc2cc3c(C4CC4)cn(-c4cccc(C5(Cn6ccnn6)CC(F)(F)C5)c4)c(=O)c3[nH]2)C1 [Example 123, 4-cyclopropyl-6-[3-[3,3-difluoro-1-(triazol-1-ylmethyl)cyclobutyl]phenyl]-2-[[(3S)-3-methylpiperidin-1-yl]methyl]-1H-pyrrolo[2,3-c]pyridin-7-one]",0.1 to 1,0.1 to 1
"Cn1cnnc1C1(c2cccc(-n3cc(C4CC4)c4cc(CNC5(CF)CCC5)[nH]c4c3=O)c2)CC(F)(F)C1 [Example 89, 4-cyclopropyl-6-{3-[3,3-difluoro-1-(4-methyl-4H-1,2,4-triazol-3-yl)cyclobutyl]phenyl}-2-({[1-(fluoromethyl)cyclobutyl]amino}methyl)-1H,6H,7H-pyrrolo[2,3-c]pyridin-7-one]",0.1 to 1,< 0.1
"CC1CC(c2cccc(-n3cc(C4CC4)c4cc(CN(C)C)[nH]c4c3=O)c2)(c2nncn2C)C1 (centres unmarked) [Example 55, 4-cyclopropyl-2-[(dimethylamino)methyl]-6-{3-[3-methyl-1-(4-methyl-4H-1,2,4-triazol-3-yl)cyclobutyl]phenyl}-1H,6H,7H-pyrrolo[2,3-c]pyridin-7-one]",< 0.1,< 0.1
CO[C@H]1C[C@](c2cccc(-n3cc(C4CC4)c4cc(CN5CCC6(CC6)C5)[nH]c4c3=O)c2)(c2nncn2C)C1 [Example 100],0.1 to 1,< 0.1
"C[C@H]1CCCN(Cc2cc3c(C4CC4)cn(-c4cccc([C@H](c5nncn5C(F)F)C5CCC5)c4)c(=O)c3[nH]2)C1 [Example 154, 6-(m-{(R)-cyclobutyl[4-(difluoromethyl)-4H-1,2,4-triazol-3-yl]methyl}phenyl)-2-{[(S)-3-methyl-1-piperidyl]methyl}-4-cyclopropyl-1,6-dihydro-1,6-diaza-7-indenone]",0.1 to 1,< 0.1
"COC1CC(c2cccc(-n3cc(C4CC4)c4cc(CN5CCO[C@H](C)C5)[nH]c4c3=O)c2)(c2nncn2C)C1 (stereo partly drawn) [Example 103, 4-cyclopropyl-6-[3-[3-methoxy-1-(4-methyl-1,2,4-triazol-3-yl)cyclobutyl]phenyl]-2-[[(2R)-2-methylmorpholin-4-yl]methyl]-1H-pyrrolo[2,3-c]pyridin-7-one]",0.1 to 1,< 0.1
"C[C@H]1CCCN(Cc2cc3c(C4CC4)cn(-c4cc(C(C)(C)c5nncn5C)ccn4)c(=O)c3[nH]2)C1 [Example 160, 2—{[(S)-3-methyl-1-piperidyl]methyl}-4-cyclopropyl-6-{4-[1-methyl-1-(4-methyl-4H-1,2,4-triazol-3-yl)ethyl]-2-pyridyl}-1,6-dihydro-1,6-diaza-7-indenone]",0.1 to 1,0.1 to 1
"C[C@H]1CCCN(Cc2cc3c(C4CC4)cn(-c4cccc([C@]5(c6nncn6C)C[C@H](F)C5)c4)c(=O)c3[nH]2)C1 [Example 130, trans-4-cyclopropyl-6-[3-[3-fluoro-1-(4-methyl-1,2,4-triazol-3-yl)cyclobutyl]phenyl]-2-[[(3S)-3-methylpiperidin-1-yl]methyl]-1H-pyrrolo[2,3-c]pyridin-7-one]",< 0.1,< 0.1
"CC1CC(c2cccc(-n3cc(C4CC4)c4cc(CN[C@@H]5COC[C@@H]5O)[nH]c4c3=O)c2)(c2nncn2C)C1 (stereo partly drawn) [Example 40, 4-cyclopropyl-2-({[(3R,4R)-4-hydroxyoxolan-3-yl]amino}methyl)-6-{3-[3-methyl-1-(4-methyl-4H-1,2,4-triazol-3-yl)cyclobutyl]phenyl}-1H,6H,7H-pyrrolo[2,3-c]pyridin-7-one]",0.1 to 1,< 0.1
"Cn1cnnc1C1(c2cccc(-n3cc(C4CC4)c4cc[nH]c4c3=O)c2)CCC1 [Example 9, 4-cyclopropyl-6-[3-[1-(4-methyl-1,2,4-triazol-3-yl)cyclobutyl]phenyl]-1H-pyrrolo[2,3-c]pyridin-7-one]",1 to 5,0.1 to 1
"CC(C)[C@H]1CNCCN1Cc1cc2c(C3CC3)cn(-c3cccc(C4(c5nncn5C)CC5(CC5)C4)c3)c(=O)c2[nH]1 [Example 72, 4-cyclopropyl-6-{3-[5-(4-methyl-4H-1,2,4-triazol-3-yl)spiro[2.3]hexan-5-yl]phenyl}-2-{[(2S)-2-(propan-2-yl)piperazin-1-yl]methyl}-1H,6H,7H-pyrrolo[2,3-c]pyridin-7-one]",1 to 5,0.1 to 1
"CC1CC(c2cccc(-n3cnc4cc(CN5CCC[C@H](C)C5)[nH]c4c3=O)c2)(c2nncn2C)C1 (mixture of isomers) [Example 119, 6—{[(3S)-3-Methylpiperidin-1-yl]methyl}-3-{3-[(1R,3S)-3-methyl-1-(4-methyl-4H-1,2,4-triazol-3-yl)cyclobutyl]phenyl}-3H,4H,5H-pyrrolo[3,2-d]pyrimidin-4-one]",< 0.1,< 0.1
"CC1CC(c2cccc(-n3cc(C4CC4)c4cc(CN5C[C@@H]6C[C@H]5CN6)[nH]c4c3=O)c2)(c2nncn2C)C1 (stereo partly drawn) [Example 59, 4-cyclopropyl-2-{[(1S,4S)-2,5-diazabicyclo[2.2.1]heptan-2-yl]methyl}-6-{3-[3-methyl-1-(4-methyl-4H-1,2,4-triazol-3-yl)cyclobutyl]phenyl}-1H,6H,7H-pyrrolo[2,3-c]pyridin-7-one]",> 5,< 0.1

# — patent publication US20260028336A1 (Arcus Biosciences, Inc., priority 2022, published 2026)
